In ChEMBL document CHEMBL5104090, “Recent advances in the medicinal chemistry of carbonic anhydrase inhibitors” (Eur J Med Chem, 2021):
Values belong to the molecule of their own block, whether it stands above or below them.

Assays:
Carbonic anhydrase 12 [1] = molecular target: T1, Carbonic anhydrase 12 (Homo sapiens, UniProt O43570)
Carbonic anhydrase 9 [2] = molecular target: T2, Carbonic anhydrase 9 (Homo sapiens, UniProt Q16790)
Carbonic anhydrase 12 [3] = molecular target: T1, Carbonic anhydrase 12; remark: listed apart in the source
Carbonic anhydrase 2 [4] = molecular target: T3, Carbonic anhydrase 2 (Homo sapiens, UniProt P00918)
Carbonic anhydrase 1 [5] = molecular target: T4, Carbonic anhydrase 1 (Homo sapiens, UniProt P00915)
T4 sequence (P00915 whole entry): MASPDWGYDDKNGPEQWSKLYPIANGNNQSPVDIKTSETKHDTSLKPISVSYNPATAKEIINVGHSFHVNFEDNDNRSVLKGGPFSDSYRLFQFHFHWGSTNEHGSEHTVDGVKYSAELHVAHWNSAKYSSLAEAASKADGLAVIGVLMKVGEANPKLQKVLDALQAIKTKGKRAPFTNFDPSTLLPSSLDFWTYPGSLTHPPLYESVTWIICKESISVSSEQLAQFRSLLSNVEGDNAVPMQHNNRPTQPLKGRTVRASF

Carbonic anhydrase 9 [6] = molecular target: T2, Carbonic anhydrase 9; remark: listed apart in the source
Carbonic anhydrase 1 [7] = molecular target: T4, Carbonic anhydrase 1; remark: listed apart in the source
Carbonic anhydrase 2 [8] = molecular target: T3, Carbonic anhydrase 2; remark: listed apart in the source
Carbonic anhydrase 4 [9] = molecular target: T5, Carbonic anhydrase 4 (Homo sapiens, UniProt P22748)
T5 sequence (P22748 whole entry): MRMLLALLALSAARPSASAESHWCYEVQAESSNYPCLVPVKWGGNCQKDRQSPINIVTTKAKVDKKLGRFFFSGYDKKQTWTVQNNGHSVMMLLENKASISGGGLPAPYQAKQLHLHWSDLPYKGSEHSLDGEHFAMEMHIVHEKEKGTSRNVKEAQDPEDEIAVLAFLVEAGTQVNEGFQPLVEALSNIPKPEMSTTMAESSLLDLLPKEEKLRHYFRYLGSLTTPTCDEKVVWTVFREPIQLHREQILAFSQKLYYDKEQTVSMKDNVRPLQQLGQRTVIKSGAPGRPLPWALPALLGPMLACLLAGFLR

Carbonic anhydrase 2 [10] = molecular target: T3, Carbonic anhydrase 2; remark: listed apart in the source
Carbonic anhydrase 9 [11] = molecular target: T2, Carbonic anhydrase 9; remark: listed apart in the source
Carbonic anhydrase 1 [12] = molecular target: T4, Carbonic anhydrase 1; remark: listed apart in the source
Carbonic anhydrase 4 [13] = molecular target: T5, Carbonic anhydrase 4; remark: listed apart in the source

T1 sequence (O43570 whole entry): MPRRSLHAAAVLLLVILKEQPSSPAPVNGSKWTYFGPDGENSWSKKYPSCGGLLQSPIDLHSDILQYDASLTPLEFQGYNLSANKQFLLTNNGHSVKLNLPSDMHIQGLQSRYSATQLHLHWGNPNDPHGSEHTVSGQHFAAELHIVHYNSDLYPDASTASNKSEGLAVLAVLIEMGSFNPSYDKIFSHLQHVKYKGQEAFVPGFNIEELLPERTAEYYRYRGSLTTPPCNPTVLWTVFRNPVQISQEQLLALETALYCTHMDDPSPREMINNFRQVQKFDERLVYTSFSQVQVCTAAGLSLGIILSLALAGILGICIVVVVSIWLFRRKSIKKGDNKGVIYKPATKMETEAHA

Ki (Carbonic anhydrase 12 [1]): 17.2 nM | Ki (Carbonic anhydrase 9 [2]): 19.3 nM
Structure (SMILES): Cc1ccc(CSc2nc3ccccc3c(=O)n2CCc2ccc(S(N)(=O)=O)cc2)cc1

IC50 (Carbonic anhydrase 12 [3]): > 360 nM | IC50 (Carbonic anhydrase 2 [4]): > 360 nM | IC50 (Carbonic anhydrase 1 [5]): > 360 nM | IC50 (Carbonic anhydrase 9 [6]): > 360 nM
Structure (SMILES): Cn1c(-c2ccc(Cl)cc2)nc2cc(C(=O)NO)ccc21

Ki (Carbonic anhydrase 1 [7]): > 100000 nM | Ki (Carbonic anhydrase 2 [8]): > 100000 nM
Structure (SMILES): O=S1(=O)CC=Cc2cccc(Br)c2O1

Ki (Carbonic anhydrase 1 [7]): > 100000 nM | Ki (Carbonic anhydrase 2 [8]): > 100000 nM
Structure (SMILES): CCOC(=O)c1ccc(-c2ccc3c(c2)C=CCS(=O)(=O)O3)cc1

Ki (Carbonic anhydrase 1 [7]): > 100000 nM | Ki (Carbonic anhydrase 2 [8]): > 100000 nM
Structure (SMILES): CCOC(=O)c1ccc(-c2ccc3c(c2)OS(=O)(=O)CC=C3)cc1

Ki (Carbonic anhydrase 4 [9]): > 10000 nM | Ki (Carbonic anhydrase 2 [10]): > 10000 nM | Ki (Carbonic anhydrase 9 [11]): > 10000 nM | Ki (Carbonic anhydrase 1 [12]): > 10000 nM
Structure (SMILES): O=C(O)c1ccc2c(c1)C(=O)N(CCc1ccccc1)C2=O

Ki (Carbonic anhydrase 4 [13]): 6.5 nM | Ki (Carbonic anhydrase 9 [2]): 0.21 nM
Structure (SMILES): NS(=O)(=O)c1ccc(N/C=C/C(=O)c2cccs2)cc1

Ki (Carbonic anhydrase 12 [1]): 8.6 nM | Ki (Carbonic anhydrase 9 [2]): 8.5 nM
Structure (SMILES): NS(=O)(=O)c1ccc(C(=O)N/N=C/c2ccccc2O)cc1

Ki (Carbonic anhydrase 12 [1]): 8.6 nM | Ki (Carbonic anhydrase 9 [2]): 15.8 nM
Structure (SMILES): CCN(CC)c1ccc(/C=N/NC(=O)c2ccc(S(N)(=O)=O)cc2)c(O)c1

Ki (Carbonic anhydrase 4 [9]): > 10000 nM | Ki (Carbonic anhydrase 2 [10]): > 10000 nM | Ki (Carbonic anhydrase 9 [11]): > 10000 nM | Ki (Carbonic anhydrase 1 [12]): > 10000 nM
Structure (SMILES): CCOC(=O)c1ccc(N2C(=O)c3ccc(C(=O)OC)cc3C2=O)cc1

Ki (Carbonic anhydrase 12 [1]): 17.2 nM | Ki (Carbonic anhydrase 9 [2]): 19.3 nM
Structure (SMILES): NS(=O)(=O)c1ccc(CCn2c(SCc3ccc(Br)cc3)nc3ccccc3c2=O)cc1

IC50 (Carbonic anhydrase 12 [3]): > 360 nM | IC50 (Carbonic anhydrase 2 [4]): > 360 nM | IC50 (Carbonic anhydrase 1 [5]): > 360 nM | IC50 (Carbonic anhydrase 9 [6]): > 360 nM
Structure (SMILES): Cn1c(-c2ccc(B(O)O)cc2)nc2ccccc21

Ki (Carbonic anhydrase 1 [7]): > 100000 nM | Ki (Carbonic anhydrase 2 [8]): > 100000 nM
Structure (SMILES): O=S1(=O)CC=Cc2cccc(-c3ccc(F)cc3)c2O1

Ki (Carbonic anhydrase 4 [13]): 6.5 nM
Structure (SMILES): NS(=O)(=O)c1cccc(N/C=C/C(=O)c2ccccc2)c1

Ki (Carbonic anhydrase 4 [9]): > 10000 nM | Ki (Carbonic anhydrase 2 [10]): > 10000 nM | Ki (Carbonic anhydrase 9 [11]): > 10000 nM | Ki (Carbonic anhydrase 1 [12]): > 10000 nM
Structure (SMILES): O=C(O)c1ccc(N2C(=O)c3ccc(C(=O)O)cc3C2=O)cc1

Ki (Carbonic anhydrase 1 [7]): > 100000 nM | Ki (Carbonic anhydrase 2 [8]): > 100000 nM
Structure (SMILES): O=S1(=O)CC=Cc2cc(-c3ccc(C(F)(F)F)cc3)ccc2O1

Ki (Carbonic anhydrase 4 [9]): 317 nM | Ki (Carbonic anhydrase 2 [10]): 25.9 nM | Ki (Carbonic anhydrase 9 [11]): 54.1 nM | Ki (Carbonic anhydrase 1 [12]): 54.1 nM
Structure (SMILES): NS(=O)(=O)c1ccc(N2C(=O)c3ccc(C(=O)O)cc3C2=O)cc1

Ki (Carbonic anhydrase 12 [1]): 17.2 nM | Ki (Carbonic anhydrase 9 [2]): 19.3 nM
Structure (SMILES): N#Cc1ccc(CSc2nc3ccccc3c(=O)n2CCc2ccc(S(N)(=O)=O)cc2)cc1

Ki (Carbonic anhydrase 4 [9]): 317 nM | Ki (Carbonic anhydrase 2 [10]): 25.9 nM | Ki (Carbonic anhydrase 9 [11]): 46 nM | Ki (Carbonic anhydrase 1 [12]): 54.1 nM
Structure (SMILES): COC(=O)c1ccc2c(c1)C(=O)N(c1ccc(S(N)(=O)=O)cc1)C2=O

Ki (Carbonic anhydrase 4 [9]): > 10000 nM | Ki (Carbonic anhydrase 2 [10]): > 10000 nM | Ki (Carbonic anhydrase 9 [11]): > 10000 nM | Ki (Carbonic anhydrase 1 [12]): > 10000 nM
Structure (SMILES): CCOC(=O)c1ccc(N2C(=O)c3ccc(C(=O)O)cc3C2=O)cc1

Ki (Carbonic anhydrase 4 [13]): 6.5 nM
Structure (SMILES): NS(=O)(=O)c1cccc(N/C=C/C(=O)c2ccc3ccccc3c2)c1

Ki (Carbonic anhydrase 4 [13]): 6.5 nM
Structure (SMILES): Cc1ccc(C(=O)/C=C/Nc2cccc(S(N)(=O)=O)c2)cc1

Ki (Carbonic anhydrase 4 [9]): > 10000 nM | Ki (Carbonic anhydrase 2 [10]): > 10000 nM | Ki (Carbonic anhydrase 9 [11]): > 10000 nM | Ki (Carbonic anhydrase 1 [12]): > 10000 nM
Structure (SMILES): COC(=O)c1ccc2c(c1)C(=O)N(c1ccccc1)C2=O

Ki (Carbonic anhydrase 4 [9]): 317 nM | Ki (Carbonic anhydrase 2 [10]): 25.9 nM | Ki (Carbonic anhydrase 9 [11]): 54.1 nM | Ki (Carbonic anhydrase 1 [12]): 54.1 nM
Structure (SMILES): NS(=O)(=O)c1ccc(CN2C(=O)c3ccc(C(=O)O)cc3C2=O)cc1

IC50 (Carbonic anhydrase 12 [3]): > 360 nM | IC50 (Carbonic anhydrase 2 [4]): > 360 nM | IC50 (Carbonic anhydrase 1 [5]): > 360 nM | IC50 (Carbonic anhydrase 9 [6]): > 360 nM
Structure (SMILES): NS(=O)(=O)c1ccc2[nH]c(-c3ccc(Cl)cc3)nc2c1

IC50 (Carbonic anhydrase 12 [3]): > 360 nM | IC50 (Carbonic anhydrase 2 [4]): > 360 nM | IC50 (Carbonic anhydrase 1 [5]): > 360 nM | IC50 (Carbonic anhydrase 9 [6]): > 360 nM
Structure (SMILES): Cn1c(-c2ccc(Cl)cc2)nc2cc(S(N)(=O)=O)ccc21

IC50 (Carbonic anhydrase 12 [3]): > 360 nM | IC50 (Carbonic anhydrase 2 [4]): > 360 nM | IC50 (Carbonic anhydrase 1 [5]): > 360 nM | IC50 (Carbonic anhydrase 9 [6]): > 360 nM
Structure (SMILES): Cn1c(-c2ccc(Cl)cc2)nc2cc(B(O)O)ccc21

Ki (Carbonic anhydrase 12 [1]): 8.6 nM | Ki (Carbonic anhydrase 9 [2]): 8.5 nM
Structure (SMILES): NS(=O)(=O)c1ccc(C(=O)N/N=C/c2cccc(O)c2)cc1

Ki (Carbonic anhydrase 1 [7]): > 100000 nM | Ki (Carbonic anhydrase 2 [8]): > 100000 nM
Structure (SMILES): COc1ccc(-c2ccc3c(c2)C=CCS(=O)(=O)O3)cc1

Ki (Carbonic anhydrase 1 [7]): > 100000 nM | Ki (Carbonic anhydrase 2 [8]): > 100000 nM
Structure (SMILES): O=S1(=O)CC=Cc2cc(I)ccc2O1

Ki (Carbonic anhydrase 4 [13]): 6.5 nM | Ki (Carbonic anhydrase 9 [2]): 0.21 nM
Structure (SMILES): COc1ccc(C(=O)/C=C/Nc2ccc(S(N)(=O)=O)cc2)cc1

IC50 (Carbonic anhydrase 12 [3]): > 360 nM | IC50 (Carbonic anhydrase 2 [4]): > 360 nM | IC50 (Carbonic anhydrase 1 [5]): > 360 nM | IC50 (Carbonic anhydrase 9 [6]): > 360 nM
Structure (SMILES): Cn1c(-c2ccc(Cl)cc2)nc2cc(C(N)=O)ccc21

IC50 (Carbonic anhydrase 12 [3]): > 360 nM | IC50 (Carbonic anhydrase 2 [4]): > 360 nM | IC50 (Carbonic anhydrase 1 [5]): > 360 nM | IC50 (Carbonic anhydrase 9 [6]): > 360 nM
Structure (SMILES): Cn1c(-c2ccccc2)nc2cc(S(N)(=O)=O)ccc21

Ki (Carbonic anhydrase 12 [1]): 57.8 nM | Ki (Carbonic anhydrase 9 [2]): 57.8 nM
Structure (SMILES): N#CCSc1nc2ccccc2c(=O)n1CCc1ccc(S(N)(=O)=O)cc1

Ki (Carbonic anhydrase 4 [9]): 317 nM | Ki (Carbonic anhydrase 2 [10]): 25.9 nM | Ki (Carbonic anhydrase 9 [11]): 54.1 nM | Ki (Carbonic anhydrase 1 [12]): 54.1 nM
Structure (SMILES): NS(=O)(=O)c1ccc(CCN2C(=O)c3ccc(C(=O)O)cc3C2=O)cc1

Ki (Carbonic anhydrase 1 [7]): > 100000 nM | Ki (Carbonic anhydrase 2 [8]): > 100000 nM
Structure (SMILES): O=S1(=O)CC=Cc2cc(-c3ccc(F)cc3)ccc2O1
